Source: patent publication EP0565593B1, “REDUCING PESTICIDAL INTERACTIONS IN CROPS” (priority 1990, dated 1992)
Read-outs that look alike come from different tables or passages of the source.

Legend:
Velvetleaf (VELE) [1] = type: in vivo, Abutilon theophrasti; conditions: […]
Giant foxtail (GIFT) = test: whole plant or invertebrate; type: in vivo
Corn [2] = system: Corn
Shattercane (SHCA) = type: in vivo; conditions: […]
Corn [3] = conditions: […]
Velvetleaf (VELE) [4] = test: whole plant or invertebrate; type: in vivo, Abutilon theophrasti
[5] = observed 8 days later (Table 33)
[6] = observed 9 days later (Table 29)
[7] = observed 9 days later (Table 30)
[8] = […], PPI, 13 days after PPI (Table 31)
[9] = […], PPI, 14 days after PPI (Table 34)
[10] = observed 7 days after POE (Table 35)
[11] = observed 7 days after POE (Table 36)
[12] = observed 8 days later (Table 32)

SMILES	% Inhibition VELE (Velvetleaf (VELE) [1]; [5]) [%]	% Inhibition VELE (Velvetleaf (VELE) [1]; [6]) [%]	% Inhibition VELE (Velvetleaf (VELE) [1]; [7]) [%]	% Inhibition GIFT (Giant foxtail (GIFT); [8]) [%]	% Inhibition GIFT (Giant foxtail (GIFT); [9]) [%]	% Inhibition Corn (Corn [2]; [8]) [%]	% Inhibition Corn (Corn [2]; [9]) [%]	% Inhibition SHCA (Shattercane (SHCA); [5]) [%]	% Inhibition SHCA (Shattercane (SHCA); [6]) [%]	% Inhibition SHCA (Shattercane (SHCA); [7]) [%]	% Inhibition Corn (Corn [3]; [5]) [%]	% Inhibition Corn (Corn [3]; [6]) [%]	% Inhibition Corn (Corn [3]; [7]) [%]	% Inhibition VELE (Velvetleaf (VELE) [4]; [8]) [%]	% Inhibition VELE (Velvetleaf (VELE) [4]; [9]) [%]	also measured
O=C(C(Cl)Cl)N1CCCC12CCCC2 [compound 19]	70	95	70	75	65	55	35	30	80	30	55	20	35	80	90	
CCC1c2ccccc2CCN1C(=O)C(Cl)Cl (stereo not drawn) [compound 39]		90	80	85		50			75	40		25	40	95		
CCCCCCOC(=O)c1sc(Cl)nc1C(F)(F)F [compound 62]																% Inhibition VELE (Velvetleaf (VELE) [1]; [10]): 80%; % Inhibition VELE (Velvetleaf (VELE) [1]; [11]): 60%; % Inhibition GIFT (Giant foxtail (GIFT); in vivo): 75%; % Inhibition Corn (Corn [2]; in vivo): 65%; % Inhibition SHCA (Shattercane (SHCA); [10]): 65%; % Inhibition SHCA (Shattercane (SHCA); [11]): 30%; % Inhibition Corn (Corn [3]; [10]): 30%; % Inhibition Corn (Corn [3]; [11]): 55%; % Inhibition VELE (Velvetleaf (VELE) [4]; in vivo): 95%
NC(=S)COC(c1ccccc1)c1ccccc1 [compound 46]	70				60		65	25			55				85	% Inhibition VELE (Velvetleaf (VELE) [1]; [12]): 90%; % Inhibition SHCA (Shattercane (SHCA); [12]): 70%; % Inhibition Corn (Corn [3]; [12]): 50%
O=C(O)COC(c1ccccc1)c1ccccc1 [compound 80]	75				65		40	35			55				100	% Inhibition VELE (Velvetleaf (VELE) [1]; [12]): 85%; % Inhibition SHCA (Shattercane (SHCA); [12]): 80%; % Inhibition Corn (Corn [3]; [12]): 20%
CCCCOC(=O)c1sc(Cl)nc1C(F)(F)F [compound 61]																% Inhibition VELE (Velvetleaf (VELE) [1]; [10]): 75%; % Inhibition VELE (Velvetleaf (VELE) [1]; [11]): 65%; % Inhibition GIFT (Giant foxtail (GIFT); in vivo): 70%; % Inhibition Corn (Corn [2]; in vivo): 60%; % Inhibition SHCA (Shattercane (SHCA); [10]): 65%; % Inhibition SHCA (Shattercane (SHCA); [11]): 35%; % Inhibition Corn (Corn [3]; [10]): 35%; % Inhibition Corn (Corn [3]; [11]): 55%; % Inhibition VELE (Velvetleaf (VELE) [4]; in vivo): 90%
O=C(C(Cl)Cl)N1CCc2ccccc2C1c1ccccc1 (stereo not drawn) [compound 40]		90	70	70		60			85	40		45	35	85		
CC1(C)OC(c2cccs2)CN1C(=O)C(Cl)Cl (stereo not drawn) [compound 22]		85	75	70		45			65	25		20	40	80		
